Source: patent US10201535B2 (priority 2011, dated 2019)

Key:
[1] = test system: 37° C. induced vessel dilation (cutaneous blood flow) in rat paws; assay: Rat Blood Flow Assay (laser Doppler flowmetry, hind foot pad); type: in vivo; details: 4 days of topical dosing (once per day), 0.1%, hairless CD rats
Method: A laser Doppler microvascular perfusion monitor (laser Doppler flowmetry technique, LDF) was used to monitor red blood cell perfusion in the microvasculature of the hind foot pad. The laser doppler flowmetry (LDF) is an OxyFlo Microvascular Perfusion Monitor, from Oxford Optronix Ltd. UK.
Briefly, 15 μL of test articles was applied topically once, or repeatedly (once daily for 4 consecutive days) to one hind foot pad of anaesthetized hairless CD rats and 15 μL of vehicle was applied to the other footpad.
At various timepoints up to 8 hrs following the last test article administration, dynamic blood flow changes were measured and recorded every 15 seconds for 4 minutes per temperature interval for 5 intervals (22° C.→37° C.→4° C.→37° C.→22° C.).
Rats were placed on a 37° C. heat pad to increase their temperature and on an ice pad to decrease their temperature to 4° C. The levels of blood flow in the two paws were compared.
The % blood flow inhibition is calculated as the % difference in the AUC of peak 1 (first 8 min heating and cooling interval) of the laser doppler recordings between the drug-treated and vehicle-treated paws. Data are the mean % inhibition values from 8-10 rats per group.

[2] = Method: To assure the integrity of each skin section, its permeability to tritiated water was determined before application of the test products.
[3] = test system: LL-37-induced skin inflammation; assay: LL-37-Induced Skin Inflammation Mouse Model (ear swelling); type: in vivo; details: at 6 and 9 hrs after topical treatment, gel on ears of BALB/c mice
Method: One hour following application, the left ear was intradermally injected with LL-37 peptide and the right ear was injected with phosphate-buffered saline (PBS). Ear thickness measurements were made with a digital caliper (Mitutoyo) at various timepoints up to 8 hrs post-injection with LL-37. Ear swelling is an indicator of inflammation.
The data are the mean values from 9-10 mice per group.

[4] = test system: UVB-induced erythema, cutaneous vessel dilation and tactile hypersensitivity in SKH1 hairless mice; assay: Ultraviolet B-Induced Mouse Sunburn Model; type: in vivo
Text: SKH1 hairless mice, lying on their stomachs with their left sides covered, were exposed to UVB at an intensity of 120 mJ/cm^2 for 91 sec. […] At various timepoints up to 48 hrs post UVB-irradiation, the following assessments were made:
1. Vasculature area in the exposed and unexposed ears by image analysis of digital photos using ImagePro Premier (Media Cybernetics) software. Images are converted to gray-scale, expanded and thresholding, based on each ear's baseline pixel values, is applied to the images. Thresholding differentiates the desired “object” features (i.e. vasculature network) from the background (i.e. skin tissue). The “object” pixels are then quantified and reported as the vasculature area.
2. Erythema on the exposed and unexposed back using a Chromameter (Konica Minolta).
3. Tactile hypersensitivity assessment using a paint brush test. The hypersensitivity is assessed by light stroking of the flank of the mice with a small paint brush every 5 min over 35 min. The behavioral response is scored as follows: 0, no response; 1, mild squeaking with attempts to move away from the brush; 2, vigorous squeaking evoked by the brush, biting at the brush and strong efforts to escape. The scores at the eight timepoints are summed so the maximum hypersensitivity score for each mouse can be 16. The exposed (right) and unexposed (left) flanks were scored independently.

[5] = test system: UVB-exposed skin of SKH1 hairless mice; assay: Mouse Model of UV-Induced Erythema (histology of back skin); type: in vivo; details: for mice with overall healing good to excellent / EPIDERMIS Hyperplasia / DERMIS Congestion / DERMIS Edema / DERMIS Infiltrates / EPIDERMIS Disorganization / EPIDERMIS Necrosis / EPIDERMIS Separation: skin 48 hours after UVB; for EPIDERMIS Hyperplasia / DERMIS Congestion / DERMIS Edema / DERMIS Infiltrates / EPIDERMIS Disorganization / EPIDERMIS Necrosis / EPIDERMIS Separation: mean grade
Method: The right backs of male SKH1 hairless mice were exposed to 120 mJ/cm^2 UVB radiation, while the left sides were shielded. […] An additional group with vehicle applied topically at 20 minutes post UVB exposure served as a control. Samples of skin from the backs from both left and right sides were collected 48 hours following UVB exposure and examined histologically.
Each endpoint is graded on a scale of 0-4 (0=no findings, 1=minimal, 2=mild, 3=moderate, 4=marked). Data are expressed as the mean of values from 6 mice per group.

[6] = 0.1% topical, 20 minutes following UVB exposure
[7] = scale 0-4, 0.1% topical 20 min after UVB
[8] = scale 0-4, 0.1% topical 4 hr after UVB
[9] = scale 0-4, 0.1% topical 8 hr after UVB

## c1cnc2c(c1)CC[C@H](Cc1c[nH]cn1)C2 [(S)-(+)-7-(1H-Imidazol-4-ylmethyl)-5,6,7,8-tetrahydro-quinoline]
[1]
  duration of statistically significant inhibition of 37° C. induced vessel dilation: at least 6 hrs
[2]
  penetration into and through skin: does penetrate into and through ex vivo human trunk skin
[2]; 48 hour dose exposure, 0.58% (w/w) dose, FIG. 3
  distribution in skin layers (mass recovered): higher concentration in the epidermis
[2]; human
  rate of percutaneous absorption (flux into receptor solution): increased rate of flux at the 18 and 36 hr timepoints
[3]
  inhibition of LL-37-induced skin inflammation (ear swelling): statistically significant inhibition
[4]; topical dosing to the back 30 min following UVB exposure
  duration of statistically significant reduction of erythema to nearly baseline levels (chromameter): at least 48 hrs
[4]; topical dosing to the back 30 min following UVB exposure, assessed 4 hrs following UVB irradiation, both UV-exposed and control sides
  tactile hypersensitivity (paint brush test): statistically significant reduction of tactile hypersensitivity
[4]; topical dosing to the ear 30 min following UVB exposure
  duration of statistically significant cutaneous vasoconstriction (reduction of cutaneous vasculature area) to nearly baseline levels: at least 48 hrs
[5]; [6]
  edema, mixed inflammatory cell infiltrates and vascular congestion of the underlying dermis: significantly reduced
  outcome of healing of UVB-exposed back skin: significantly improved the outcome of healing
[5]; 0.1% topical, treated at 20 minutes post UVB exposure
  mice with overall healing good to excellent: 75%
[5]; 0.1% topical, treated at 4 hours post UVB exposure
  mice with overall healing good to excellent: 50%
[5]; 0.1% topical, treated at 8 hours post UVB exposure
  mice with overall healing good to excellent: 60%
[5]; 0.1% topical, treated up to 8 hours following UVB exposure (all treated mice)
  mice with epidermal failure (moderate to marked separation and necrosis): 8%
[5]; scale 0-4 (0=no findings, 4=marked), 0.1% topical 20 min after UVB
  EPIDERMIS Hyperplasia: 3.0
[5]; [7]
  DERMIS Congestion: 1.0
  DERMIS Edema: 0.5
  DERMIS Infiltrates: 0.8
  EPIDERMIS Disorganization: 2.0
  EPIDERMIS Necrosis: 0.5
  EPIDERMIS Separation: 0.3
[5]; [8]
  DERMIS Congestion: 1.8
  DERMIS Edema: 2.0
  DERMIS Infiltrates: 2.0
  EPIDERMIS Disorganization: 3.0
  EPIDERMIS Hyperplasia: 2.3
  EPIDERMIS Necrosis: 1.3
  EPIDERMIS Separation: 1.3
[5]; [9]
  DERMIS Congestion: 1.0
  DERMIS Edema: 1.5
  DERMIS Infiltrates: 0.8
  EPIDERMIS Disorganization: 2.0
  EPIDERMIS Hyperplasia: 3.3
  EPIDERMIS Necrosis: 1.0
  EPIDERMIS Separation: 1.3
